Columns and labels:
[1] = test system: HBV; experiment: Test of anti HBV activity in vitro (viral DNA by qPCR); format: cell-based; details: Hepatitis B virus; HepG2.2.15 cells, viral DNA in cell culture supernatant by qPCR; read-out: EC50 values of the compound of the invention on viral replication
Method: Test 1: Test Method of Calculating Anti HBV EC50
HBV Cell Line and Culture Conditions
HepG2.2.15 (SELLS, PNAS, 1987 and SELLS, JV, 1988) chromosomes have an integrated complete HBV genome, and stably express viral RNA and viral protein. HepG2.2.15 cells can secrete mature HBV particles, HBsAg and HBeAg, to medium. HepG2.2.15 cells were cultured in DMEM containing 10% fetal bovine serum, 100 U/mL penicillin, 100 U/mL streptomycin, 1% non essential amino acid, 1 mM sodium pyruvate and 300 μg/mL G418.
Viral particles DNA secreted from HepG2.2.15 cells can be quantified by qPCR, and the effect of the compound on viral replication can be detected.
Test of Anti HBV Activity In Vitro
8000 HepG 2.2.15 cells per well were seeded into a 96-well plate, the plate was cultured at 37° C. and 5% CO2 for 3 days till the cells grew to full wells. Old liquid medium can be removed and replaced with new medium (200 μL) on day 0.
Formulating the compound and treating the cells in the experiment of anti virus: the compound was dissolved in DMSO to a concentration of 30 mM, and then the compound solution was diluted with DMSO to a concentration of 800 μM, and then eight dilutions at 4 fold were performed, the highest concentration is 800 μM. The serial diluted compound was added to the above plate at 1 μL per well, the highest final concentration in the experiment is 4 μM (200 fold dilution). TDF (tenofovir dipiroxil fumarate, Selleck, Cat S1400) has a highest concentration of 4 μM as a positive control. 1 μL of DMSO was added in to the […] at a final concentration of 0.5%, TDF was added in to the […] at a final concentration of 1 μM.
Detection of Viral Genomic DNA by aPCR
Primer: HBV-For-202, […]; HBV-Rev-315, […]. Copies of virus can be calculated using a standard curve plotted by using plasmid containing HBV genome and using SYBR Premix Ex Taq II—Takara DRR081S kit and 1 μL cell culture supernatant as a template. EC50 values of the compound on viral replication were calculated by a four parametric nonlinear regression model using Graphpad Prism 5 software to manage concentration—viral copy number.

[2] = Cytotoxicity test with CellTiter Glo; format: cell-based; details: human, HepG2.2.15 cells, highest concentration 150 μM, read-out: CC50 values of the compounds of the invention
Method: Test 2: Cytotoxicity and Selectivity Index
Methods of Testing Cytotoxicity and Selectivity Index
The serial diluted compound was added to a 384 wells plate at 50 μL HepG2.2.15 cell per well (3000 cells per well), the highest final concentration in the experiment is 150 μM (200 fold dilution). The plate was cultured at 37° C. in an incubator with CO2 for 4 days, and cytotoxicity of the compound was detected using CellTiter Glo agent.
The cytotoxicity of the compound was calculated using the following formulate, cytotoxicity (%)=100−(detection value/mean of DMSO control wells values×100) CC50 values were calculated by a four parametric nonlinear regression model using Graphpad Prism 5 software to manage concentration−cytotoxicity (%).

Row | Structure (SMILES) | EC50 [1] [nM] | CC50 at 4 days [2] [nM]
1 | COC(=O)C1=C(CN2CCN3C(=O)N(c4nc(-c5ccc(C(C)(C)C(=O)O)cc5)cs4)C[C@@H]3C2)NC(c2nccs2)=N[C@H]1c1ccc(F)cc1Cl [Example 17, 2-(4-(2-((S)-7-(((R)-6-(2-chloro-4-fluorophenyl)-5-(methoxycarbonyl)-2-(thiazol-2-yl)-3,6-dihydropyrimidin-4-yl)methyl)-3-oxohexahydroimidazo[1,5-a]pyrazin-2(3H)-yl)thiazol-4-yl)phenyl)-2-methylpropionic acid] | 6 | > 150000
2 | COC(=O)C1=C(CN2CCN3C(=O)N(c4ccc(-c5ccc(C(C)(C)C(=O)O)cc5)cn4)C[C@@H]3C2)NC(c2nccs2)=N[C@H]1c1ccc(F)cc1Cl [Example 19, 2-(4-(6-((S)-7-(((R)-6-(2-chloro-4-fluorophenyl)-5-(methoxycarbonyl)-2-(thiazol-2-yl)-3,6-dihydropyrimidin-4-yl)methyl)-3-oxohexahydroimidazo[1,5-a]pyrazin-2(3H)-yl)pyridin-3-yl)phenyl)-2-methylpropionic acid] | 14 | > 150000
3 | COC(=O)C1=C(CN2CCN3C(=O)N(c4ccc(N5CCO[C@H](CCC(=O)O)C5)cc4)C[C@@H]3C2)NC(c2nccs2)=N[C@H]1c1ccc(F)cc1Cl [Example 20, 3-((R)-4-(4-((S)-7-(((R)-6-(2-chloro-4-fluorophenyl)-5-(methoxycarbonyl)-2-(thiazol-2-yl)-3,6-dihydropyrimidin-4-yl)methyl)-3-oxohexahydroimidazo[1,5-a]pyrazin-2(3H)-yl)phenyl)morpholin-2-yl)propionic acid] | 4 | > 150000
4 | COC(=O)C1=C(CN2CCN3C(=O)N(c4ccc(Oc5ccc(C(=O)O)cc5F)cn4)C[C@@H]3C2)NC(c2nccs2)=N[C@H]1c1ccc(F)cc1Cl [Example 22, 4-((6-((S)-7-(((R)-6-(2-chloro-4-fluorophenyl)-5-(methoxycarbonyl)-2-(thiazol-2-yl)-3,6-dihydropyrimidin-4-yl)methyl)-3-oxohexahydroimidazo[1,5-a]pyrazin-2(3H)-yl)pyridin-3-yl)oxy)-3-fluorobenzoic acid] | 18 | > 150000
5 | COC(=O)C1=C(CN2CCN3C(=O)N(c4cc(F)cc(OC5CCC(C(=O)O)CC5)c4)C[C@@H]3C2)NC(c2nccs2)=N[C@H]1c1ccc(F)cc1Cl (stereo partly drawn) [Example 23, 4-(3-((S)-7-(((R)-6-(2-chloro-4-fluorophenyl)-5-(methoxycarbonyl)-2-(thiazol-2-yl)-3,6-dihydropyrimidin-4-yl)methyl)-3-oxohexahydroimidazo[1,5-a]pyrazin-2(3H)-yl)-5-fluorophenoxy)cyclohexane carboxylic acid] | 7 | > 150000
6 | COC(=O)C1=C(CN2CCN3C(=O)N(c4ccc(C5(C#N)CC5)cc4)C[C@@H]3C2)NC(c2nccs2)=N[C@H]1c1ccc(F)cc1Cl [Example 26] | 1 | > 150000
7 | COC(=O)C1=C(CN2CCN3C(=O)N(c4ccc(N5CCC(C(=O)O)CC5)cc4F)C[C@@H]3C2)NC(c2nccs2)=N[C@H]1c1ccc(F)cc1Cl [Example 31, 1-(4-((S)-7-(((R)-6-(2-chloro-4-fluorophenyl)-5-(methoxycarbonyl)-2-(thiazol-2-yl)-3,6-dihydropyrimidin-4-yl)methyl)-3-oxohexahydroimidazo[1,5-a]pyrazin-2(3H)-yl)-3-fluorophenyl)piperidine-4-carboxylic acid] | 16 | > 150000
8 | COC(=O)C1=C(CN2CCN3C(=O)N(c4cc(F)cc(N5CCC(C(=O)O)CC5)c4)C[C@@H]3C2)NC(c2nccs2)=N[C@H]1c1ccc(F)cc1Cl [Example 32, 1-(3-((S)-7-(((R)-6-(2-chloro-4-fluorophenyl)-5-(methoxycarbonyl)-2-(thiazol-2-yl)-3,6-dihydropyrimidin-4-yl)methyl)-3-oxohexahydroimidazo[1,5-a]pyrazin-2(3H)-yl)-5-fluorophenyl)piperidine-4-carboxylic acid] | 6 | > 150000
9 | COC(=O)C1=C(CN2CCN3C(=O)N(c4ccc(-c5ccc(C(=O)O)cc5F)c(F)c4)C[C@@H]3C2)NC(c2nccs2)=N[C@H]1c1ccc(F)cc1Cl [Example 33, 4′-((S)-7-(((R)-6-(2-chloro-4-fluorophenyl)-5-(methoxycarbonyl)-2-(thiazol-2-yl)-3,6-dihydropyrimidin-4-yl)methyl)-3-oxohexahydroimidazo[1,5-a]pyrazin-2(3H)-yl)-2,2′-difluoro-[1,1′-diphenyl]-4-carboxylic acid] | 7 | > 150000
10 | COC(=O)C1=C(CN2CCN3C(=O)N(c4ccc(Oc5ccc(C(=O)NCc6ccccc6Cl)cc5)cc4)C[C@@H]3C2)NC(c2nccs2)=N[C@H]1c1ccc(F)cc1Cl [Example 62, (R)-methyl 4-(2-chloro-4-fluorophenyl)-6-(((S)-2-(4-(4-((2-chlorobenzyl)carbamoyl)phenoxy)phenyl)-3-oxohexahydroimidazo[1,5-a]pyrazin-7(1H)-yl)methyl)-2-(thiazol-2-yl)-1,4-dihydropyrimidine-5-carboxylate] |  | > 150000
11 | COC(=O)C1=C(CN2CCN3C(=O)N(c4ccc(Oc5ccc(C(=O)N6CCOC[C@@H]6CCC(=O)O)cc5)cc4)C[C@@H]3C2)NC(c2nccs2)=N[C@H]1c1ccc(F)cc1Cl [Example 73, 3-((S)-4-(4-(4-((S)-7-(((R)-6-(2-chloro-4-fluorophenyl)-5-(methoxycarbonyl)-2-(thiazol-2-yl)-3,6-dihydropyrimidin-4-yl)methyl)-3-oxohexahydroimidazo[1,5-a]pyrazin-2(3H)-yl)phenoxy)benzoyl)morpholin-3-yl)propanoic acid] |  | > 150000
12 | COC(=O)C1=C(CN2CCN3C(=O)N(c4ccc(Oc5ccc(C(=O)NCC(C)(C)C(=O)O)cc5)cc4)C[C@@H]3C2)NC(c2nccs2)=N[C@H]1c1ccc(F)cc1Cl [Example 75, 3-(4-(4-((S)-7-(((R)-6-(2-chloro-4-fluorophenyl)-5-(methoxycarbonyl)-2-(thiazol-2-yl)-3,6-dihydropyrimidin-4-yl)methyl)-3-oxohexahydroimidazo[1,5-a]pyrazin-2(3H)-yl)phenoxy)benzamido)-2,2-dimethylpropanoic acid] |  | > 150000
13 | COC(=O)C1=C(CN2CCN3C(=O)N(c4cncc(Oc5ccc(C(=O)O)cc5F)c4)C[C@@H]3C2)NC(c2nccs2)=N[C@H]1c1ccc(F)cc1Cl [Example 81, 4-((5-((S)-7-(((R)-6-(2-chloro-4-fluorophenyl)-5-(methoxycarbonyl)-2-(thiazol-2-yl)-3,6-dihydropyrimidin-4-yl)methyl)-3-oxohexahydroimidazo[1,5-a]pyrazin-2(3H)-yl)pyridin-3-yl)oxy)-3-fluorobenzoic acid] |  | > 150000
14 | COC(=O)C1=C(CN2CCN3C(=O)N(c4ccc(Oc5ccc(OCC(F)(F)F)cc5)cc4)C[C@@H]3C2)NC(c2nccs2)=N[C@H]1c1ccc(F)cc1Cl [Example 104, (R)-methyl 4-(2-chloro-4-fluorophenyl)-6-(((S)-3-oxo-2-(4-(4-(2,2,2-trifluoroethoxy)phenoxy)phenyl)hexahydroimidazo[1,5-a]pyrazin-7(1H)-yl)methyl)-2-(thiazol-2-yl)-1,4-dihydropyrimidine-5-carboxylate] |  | > 150000
15 | COC(=O)C1=C(CN2CCN3C(=O)N(c4nc(-c5ccc(CC(=O)O)cc5)cs4)C[C@@H]3C2)NC(c2nccs2)=N[C@H]1c1ccc(F)cc1Cl [Example 134, 2-(4-(2-((S)-7-(((R)-6-(2-chloro-4-fluorophenyl)-5-(methoxycarbonyl)-2-(thiazol-2-yl)-3,6-dihydropyrimidin-4-yl)methyl)-3-oxohexahydroimidazo[1,5-a]pyrazin-2(3H)-yl)thiazol-4-yl)phenyl)acetic acid] | 4 | 
16 | COC(=O)C1=C(CN2CCN3C(=O)N(c4nc(-c5cccc(CCC(=O)O)c5)cs4)C[C@@H]3C2)NC(c2nccs2)=N[C@H]1c1ccc(F)cc1Cl [Example 140, 3-(3-(2-((S)-7-(((R)-6-(2-chloro-4-fluorophenyl)-5-(methoxycarbonyl)-2-(thiazol-2-yl)-3,6-dihydropyrimidin-4-yl)methyl)-3-oxohexahydroimidazo[1,5-a]pyrazin-2(3H)-yl)thiazol-4-yl)phenyl)propanoic acid] | 18.3 | 
